In experiment [1] the target is T1, rTR alpha (Rattus norvegicus, UniProt P63059).
T1 construct: made in house; host or cells: rabbit reticulocyte lysate (SP6 transcripts of rbeA12B)
T1 sequence (P63059 1-410 isoform P63059-2): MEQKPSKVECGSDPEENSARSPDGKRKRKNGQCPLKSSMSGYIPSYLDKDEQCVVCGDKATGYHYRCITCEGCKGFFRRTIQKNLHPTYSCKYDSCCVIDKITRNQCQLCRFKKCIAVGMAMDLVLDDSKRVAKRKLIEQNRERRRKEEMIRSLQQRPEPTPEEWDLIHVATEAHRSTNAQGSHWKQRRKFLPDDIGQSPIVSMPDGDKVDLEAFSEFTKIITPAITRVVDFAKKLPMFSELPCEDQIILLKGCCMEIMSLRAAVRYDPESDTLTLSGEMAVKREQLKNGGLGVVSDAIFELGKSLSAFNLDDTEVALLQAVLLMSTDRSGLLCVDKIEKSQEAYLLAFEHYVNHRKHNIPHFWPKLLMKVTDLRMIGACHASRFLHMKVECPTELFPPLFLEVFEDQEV
Nature of the experiment: ^125I-T3 binding to in vitro translated rTR alpha (Scatchard and competition). The settings on record: excess competitor. From the text: In vitro translation and thyroid hormone binding of rTR alpha FIG. 69 rTR alpha was transcribed in vitro and translated in a rabbit reticulocyte lysate. […] Lane 1, no added RNA; lane 2, rbeA12, which contains the entire 5′ untranslated region; lane 3, rbeA12B, which contains only 97 bp of 5′ untranslated sequence. […] Samples from rbeA12B programmed lysates were mixed with increasing concentrations of unlabeled thyroid hormone or analogs to compete with labeled hormone. […] In vitro transcription and translation and hormone binding were performed as described (22, 23).
23. For in vitro transcription, the entire EcoRI insert of rbeA12 was cloned into pGEM1 (Promega Biotec). […] For thyroid hormone binding, transcriptions were performed with SP6 polymerase and 5 to 10 micrograms of rbeA12B linearized with SstI. […] Thyroid hormone binding for both the Scatchard and competition analyses were determined in the same manner, except that unlabeled protein was used for the Scatchard analysis. […] Specific hormone binding was determined by adding a 1000-fold excess of unlabeled hormone and assayed by counting radioactivity eluting in the excluded volume from a Sephadex G-25 fine (Pharmacia) 0.9-by 4.0-cm. column.

The target in experiment [2] is T2, hMR (Homo sapiens, UniProt P08235).
T2 sequence (P08235 1-984): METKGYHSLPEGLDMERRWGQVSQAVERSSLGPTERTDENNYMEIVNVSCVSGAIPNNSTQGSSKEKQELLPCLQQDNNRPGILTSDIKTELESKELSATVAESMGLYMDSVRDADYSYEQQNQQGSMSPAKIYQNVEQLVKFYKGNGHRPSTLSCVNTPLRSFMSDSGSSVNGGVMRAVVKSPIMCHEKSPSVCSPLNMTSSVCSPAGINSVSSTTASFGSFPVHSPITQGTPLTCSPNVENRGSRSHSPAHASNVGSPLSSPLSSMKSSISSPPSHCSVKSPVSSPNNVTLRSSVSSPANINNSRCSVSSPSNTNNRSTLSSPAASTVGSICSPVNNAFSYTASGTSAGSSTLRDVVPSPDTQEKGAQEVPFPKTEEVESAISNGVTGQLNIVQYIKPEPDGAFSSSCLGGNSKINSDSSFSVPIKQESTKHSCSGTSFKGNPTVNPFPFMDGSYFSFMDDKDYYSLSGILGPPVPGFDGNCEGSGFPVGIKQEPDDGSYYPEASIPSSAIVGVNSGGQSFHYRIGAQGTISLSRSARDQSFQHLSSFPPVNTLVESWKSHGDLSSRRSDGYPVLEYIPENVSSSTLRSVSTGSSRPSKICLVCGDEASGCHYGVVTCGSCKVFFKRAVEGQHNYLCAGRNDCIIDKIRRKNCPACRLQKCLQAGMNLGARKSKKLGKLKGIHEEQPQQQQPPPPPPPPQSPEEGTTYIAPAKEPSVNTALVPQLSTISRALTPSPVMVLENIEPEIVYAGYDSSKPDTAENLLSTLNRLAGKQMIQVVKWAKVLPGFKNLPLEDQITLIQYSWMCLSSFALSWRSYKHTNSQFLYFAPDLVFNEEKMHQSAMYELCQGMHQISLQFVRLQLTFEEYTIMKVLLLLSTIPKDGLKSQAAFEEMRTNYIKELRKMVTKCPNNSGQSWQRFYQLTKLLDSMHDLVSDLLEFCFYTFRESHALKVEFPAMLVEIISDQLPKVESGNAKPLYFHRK
Nature of the experiment: [^3H]aldosterone binding and steroid competition in extracts of pRShMR-transfected COS cells. The settings on record: 1-, 10-, or 100-fold molar excess of unlabeled steroid. Further details: expressed in transfected cells; host or cells: COS cells transfected with pRShMR (DEAE-dextran). Here is the method:
Ligand specificity of the hMR protein was determined by preparing cytosol extracts from COS cells transfected with pRShMR. Two days after transfection, cells were harvested, and hormone binding was measured by a dextran-treated charcoal assay. […] This provided a measure of the relative affinity of each of these steroids for hMR.
Steroid-binding properties of expressed hMR. FIG. 38 Structure of pRShMR, the hMR expression plasmid (41). […] Each point was assayed in triplicate with 100 micrograms of extract protein in a 200-microliter incubation at 0° C. for 2.5 hours. […] The results of two independent trials representative of these competition experiments are shown. Cold competitor was present in 1-, 10-, or 100-fold molar excess. […] Subconfluent COS cells were transfected by the DEAE-dextran method (42) with 10 micrograms of pRShMR per dish. Cells were maintained for 2 days in DMEM (Dulbecco's modification of Eagle's minimum essential medium) with 5 percent charcoal-treated fetal calf serum, then harvested in […] tris-HCl. (pH 7.8), 10 nM NaCl, 1 mM EDTA, 10 mM Na2MoO4, 5 mM dithiothreitol, antipain (5 microgram/ml), leupeptin (5 microgram/ml), and 500 microM phenylmethylsulfonyl fluoride. After centrifugation at 15,000×g for 10 minutes, extracts were adjusted to 100 mM NaCl and 5 percent glycerol before binding. […] After centrifugation at 15,000×g for 2 minutes at 40C, tritium in supernatant was quantified by liquid scintillation spectrophotometry.

The source of these data is US6806359B1, “Hormone receptor compositions and methods” (The Salk Institute for Biological Studies, priority 1986, dated 2004).

For `C[C@]12CC[C@@H]3c4ccc(O)cc4CC[C@H]3[C@@H]1CC[C@@H]2O` [oestradiol], the “competition for T3 binding to rTR alpha by excess compound” value in experiment [1] is “no competition”. For the same compound, the “relative affinity for hMR by competition with 5 nM [^3H]aldosterone (in words)” value in experiment [2] is “competed very poorly”.
